The text below walks through data of article PMC4269219 (International journal of andrology, 2010).

A value given as a limit tells only on which side of the number the result lay.

For one data set, the system named is 5α-reductase. To be noted: finasteride 2 mg daily; ref Steiner, 1996; cited from earlier work.
Data set [1] relates to endogenous testosterone production. To be noted: 300 µg/kg subcutaneous, normal healthy men; ref Herbst et al., 2004; cited from earlier work.
Data set [2] can be described thus: Steady-state pharmacokinetics of oral TU alone or with finasteride. The data set is classed as in vivo, men. Particulars: seventh day of dosing, all treatments (Fig. 2A).

For the compound `CC(C)(C)NC(=O)[C@H]1CC[C@H]2[C@@H]3CC[C@H]4NC(=O)C=C[C@]4(C)[C@H]3CC[C@]12C` [finasteride], the “Reduction of circulating levels of DHT” value in the data set with 5α-reductase is given as 50%. Consider acyline, for which, in data set [1], the “Duration of testosterone suppression” value is reported as 2 weeks and the “Time to suppression of testosterone to castrate levels” value is on record as ≤ 24 h. As for `CCCCCCCCCCC(=O)O[C@H]1CC[C@H]2[C@@H]3CCC4=CC(=O)CC[C@]4(C)[C@H]3CC[C@]12C` [TU + placebo, testosterone undecanoate], in data set [2], the “Time after dosing at which mean serum testosterone concentrations peaked” value turned out to be 4 h.
